From patent publication US20260102413A1, “TREATING PAIN ASSOCIATED WITH CENTRAL SENSITIZATION” (Medicon Pharmaceuticals, Inc., priority 2022, published 2026)

Assays:
[1] = drug levels in proximal and distal half of the sciatic nerve after topical PS; assay type: in vivo, mouse; details: mouse, in vivo
Protocol: In a separate experiment we studied 8 mice with paclitaxel-induced PN treated with PS 8% ointment 3×/d for 2 wks. Mice were euthanized as above 30 minutes after the last dose of PS. From these mice we harvested both sciatic nerves dividing each into proximal and distal halves, and combined the corresponding halves of every two animals for assay of drug levels.

[2] = test system: mice with NTG-induced chronic migraine; assay: von Frey PWT, NTG-induced chronic migraine model; assay type: in vivo, mouse; details: for PWT, g Mean ± SEM, Day 12 (pre-treatment): day 12 after first NTG dose, before compound administration; for PWT, g Mean ± SEM, Baseline: group baseline prior to NTG (Example 17)
Source text: The NTG-induced chronic migraine model was used as described previously.

[3] = test system: mice with paclitaxel-induced neuropathic pain (CIPN); assay: von Frey paw withdrawal threshold (mechanical allodynia), paclitaxel-induced CIPN / central sensitization, treatment of established pain, topical test compounds; assay type: in vivo, mouse; details: for Paw-withdrawal threshold, g Mean ± SEM, Day 0: group value after paclitaxel, before study drug; for PWT: naproxen 2.4%, aspirin […], ibuprofen 2.5% topical both hind paws 3x/day 14 days
Protocol: Paw withdrawn, licking or shaking were considered positive responses.
(§1) The first doses were administered 5 days after the last administration of paclitaxel (i.e., at day 0).
The PWT test was performed prior to the administration of paclitaxel (day −8) to establish the threshold in mice without neuropathic pain associated with CIPN (the value shown is an average of the PWT in all groups at day −8).
Pain associated with CIPN was established in line with the experiments disclosed herein. Mice were treated with naproxen 2.4% (equimolar to PN 5%), aspirin 1.7% (equimolar to PA2 5%); or ibuprofen 2.5% (equimolar to PI 5%) or vehicle applied topically to both hind paws 3×/day for 14 days.
CIPN was induced in mice with chemotherapeutic agents using established protocols (Carozzi et al, 2010; Currie et al, 2019; Eldridge et al, 2020).
The first doses were administered 1 day after the last administration of paclitaxel (i.e., at day 0).
as §1
The PWT test was performed on day 21, at the end of the experiment, but was also additionally determined on day 14 for LXIX.

[4] = test system: mice with paclitaxel-induced CIPN; assay: thermal allodynia (paw withdrawal latency, radiant heat), paclitaxel CIPN model; assay type: in vivo, mouse; details: NO-sulindac, HS-sulindac 5% topical 3x/day
Protocol: Group 3: paclitaxel pluse sulindac (n=8)
Thermal allodynia was also determined for the mice study groups below (with 8 mice per group): • 1. Group 1: naïve mice (i.e. no paclitaxel) • 2. Group 2: paclitaxel only • 3. Group 3: paclitaxel plus vehicle • 4. Group 4: paclitaxel plus NO-sulindace • 5. Group 5: paclitaxel plus thiol-sulindac

[5] = test system: mice with paclitaxel-induced CIPN; assay: von Frey PWT, paclitaxel CIPN model, orally administered compounds; assay type: in vivo, mouse; details: for PWT, g: 100 mg/kg oral gavage 3x/day; for PWT: oral gavage 3x/day 6 days: ibuprofen 40, PI 80, PIA 80, PGI 60 mg/kg, day 6
Source text: CIPN was induced in mice with chemotherapeutic agents using established protocols (Carozzi et al, 2010; Currie et al, 2019; Eldridge et al, 2020). […] This dosing regimen of paclitaxel produces pain associated with CIPN with time courses that are similar to those of pain after paclitaxel administration in cancer patients.
Group 1: naïve mice (i.e. no paclitaxel, n=8) • 2. Group 2: paclitaxel only (n=8) • 3. Group 3: paclitaxel plus vehicle (n=8) • 4. […] Group 5: paclitaxel pluse sulindac (n=8)
The PWT test was performed on day 7.
Phospho-naproxen (PN) and naproxen were given by oral gavage, three times a day for 7 days. Their doses were as follows: PN, 65 mg/kg; naproxen, 35 mg/kg (equimolar to PN). The response of mechanical allodynia to phospho-naproxen (PN) and naproxen was tested on day 7.
(§2) This dosing regimen of paclitaxel produces pain associated with CIPN with time courses that are similar to those of pain after paclitaxel administration in cancer patients.
Phospho-ibuprofen (PI) (Formula III), phospho-glycerol-ibuprofen (PGI) (Formula LXXI), phospho-ibuprofen-amide (PIA) (Formula XI), and ibuprofen were given by oral gavage, three times a day for 6 days. Their doses were as follows: ibuprofen, 40 mg/kg; PI, 80 mg/kg; PIA, 80 mg/kg; all three were equimolar.
The response of mechanical allodynia to these compounds was tested on day 6, using the PWT test.
as §2
NO-sulindac (Formula XLIV), HS-sulindac (Formula XXXIV), platinum-sulindac (Formula LXVII), and NOSH-1 (Formula LIX) were given by oral gavage, three times a day throughout the study period. Their doses were all 100 mg/kg.
The response of mechanical allodynia to these compounds was tested on the days set out in the table below, via the PWT test.
LXIX was given by oral gavage, once a day for 14 days at a dose of 100 mg/kg.
The response of mechanical allodynia to these compounds was tested on day 14, via the PWT test.

[6] = test system: mice with NTG-induced migraine; assay: von Frey PWT, NTG-induced migraine model, oral or intraperitoneal compounds; assay type: in vivo, mouse; details: oral 30 min after NTG: PS 50, sulindac 33, PN 65, naproxen 35 mg/kg; 30 min after administration
Protocol: Phosphonaproxen (Formula VIII), and its parent compound, naproxen, were administered orally to each mouse group. All compounds were administered at equimolar doses. In particular, phosponaproxen was administered at 65 mg/kg, and naproxen was administered at 35 mg/kg, 30 minutes after NTG administration. The response of mechanical allodynia was tested 30 minutes after administration.

STZ-diabetic rats = assay type: in vivo, rat; details: rat, in vivo
Source text: The animal model corresponds to that used for Example 4, but using a prevention protocol. As in Example 4, the outcome measure, determining the effect of the treatment on the prevention of mechanical allodynia, was the PWT test, using von Frey filaments. The measurements were taken at day −3, before treatment or induction of neuropathic pain associated with DPN, and again at the end of the study period (day 28).
The rats were randomised into treatment groups as follows, all having an average body weight of about 225 g. • 1. Group 1: naïve rats (n=6) • 2. Group 2: STZ only (n=8) • 3. Group 3: STZ plus vehicle (n=8) • 4. […] Group 5: STZ plus sulindac 0.7% (n=8) • 6. Group 6: STZ plus lidocaine cream 5% (n=8)
Each treatment group was subjected to a PWT assessment at day −3 in order to determine the baseline of mechanical allodynia.
For those rats in the lidocaine treatment group, lidocaine cream was applied only once to both hind paws of the rats 30 min before the final PWT measurement on day 28. On day 0, neuropathic pain associated with DPN was induced with the administration of STZ, and the blood glucose was checked on day 3.

[7] = test system: mice with chronic constriction injury of the left sciatic nerve (PTPN); assay: von Frey PWT, chronic constriction injury (CCI) model of PTPN, topical compounds; assay type: in vivo, mouse; details: for PWT, g mean ± SEM, Day 14: NOSH-1, LXIX, LXX 5% on left hind paw 3x/day 14 days; for PWT, g Mean ± SEM, Baseline: group value following ligation, prior to treatment
Protocol: The PWT test was performed following ligation, but prior to treatment to determine baseline values. The PWT was then further measured on day 14.

[8] = test system: mice with chronic constriction injury (PTPN); assay: von Frey PWT, CCI model of PTPN, orally administered compounds; assay type: in vivo, mouse; details: for PWT, g Mean ± SEM: oral 3x/day 14 days: PI 80, PIA 80, ibuprofen 40 mg/kg, day 14
Protocol: Phospho-ibuprofen (PI) (Formula III), phospho-ibuprofen-amide (PIA) (Formula XI), ibuprofen and vehicle control were all administered orally, three times a day for 14 days. Their doses were as follows: PI 80 mg/kg, PIA 80 mg/kg, ibuprofen 40 mg/kg (all three are equimolar). […] Group 1: vehicle (n=5-8) • 2. Group 2: ibuprofen (n=5-8) • 3. Group 3: phospho-ibuprofen (PI) (n=5-8) • 4. Group 4: phospho-ibuprofen-amide (PIA) (n=5-8)

Compound: CC1=C(CC(=O)O)c2cc(F)ccc2/C1=C\c1ccc(S(C)(=O)=O)cc1 [sulindac sulfone]
- Fold difference distal vs proximal [1]: 4.5

Compound: CC1(C)O[C@@H]2[C@@H](CO[C@@]3(COS(N)(=O)=O)OC(C)(C)O[C@@H]23)O1 [Topiramate, topiramate]
- PWT, g Mean ± SEM, Day 12 (pre-treatment) [2]: 0.60 ± 0.00 g
- PWT, g Mean ± SEM, Baseline [2]: 2.40 ± 0.24 g

Compound: CCOP(=O)(OCC)OCC(COC(=O)c1ccccc1OC(C)=O)OP(=O)(OCC)OCC (stereo not shown) [glycero-phospho-aspirin II]
- Paw-withdrawal threshold, g Mean ± SEM, Day 0 [3]: 0.66 ± 0.05 g
- Paw-withdrawal threshold, g Mean ± SEM, Day 14 ([3]; mouse, in vivo): 0.69 ± 0.06 g

Compound: CC1=C(CC(=O)Oc2ccc(-c3cc(=S)ss3)cc2)c2cc(F)ccc2/C1=C\c1ccc([S+](C)[O-])cc1 (stereo not shown) [HS-sulindac]
- PWT, g Mean ± SEM ([3]; paclitaxel 8 mg/kg x4, 5% topical both hind paws 3x/day 17 days): 0.99 ± 0.15 g
- PWL, sec Mean ± SEM [4]: 9.9 ± 0.6 s
- PWT, g ([5]; D 2): D 2 = 0.90 ± 0.09 g
- PWT, g ([5]; D 4): D 4 = 1.10 ± 0.05 g
- PWT, g ([5]; D 13): D 13 = 1.23 ± 0.06 g

Compound: COc1ccc2cc([C@H](C)C(=O)O)ccc2c1 [Naproxen, naproxen, reference compound]
- PWT [3]: 0.61 ± 0.11 g
- PWT, g Mean ± SEM ([5]; paclitaxel 8 mg/kg x4, oral gavage 3x/day 7 days: PS 50, sulindac 33, PN 65, naproxen 35 mg/kg, day 7): 0.53 ± 0.05 g
- PWT, g Mean ± SEM [6]: 0.56 ± 0.02 g

Compound: CNS(=O)(=O)Cc1ccc2[nH]cc(CCN(C)C)c2c1 [Sumatriptan, sumatriptan]
- PWT, g Mean ± SEM, Day 12 (pre-treatment) [2]: 0.57 ± 0.02 g
- PWT, g Mean ± SEM, Baseline [2]: 1.90 ± 0.06 g

Compound: CCN(CC)CC(=O)Nc1c(C)cccc1C [lidocaine]
- von Frey, gm mean ± SEM (STZ-diabetic rats): 34.3 ± 1.6 gm

Compound: COc1ccc2cc(C(C)C(=O)Oc3ccc(C(N)=S)cc3)ccc2c1 (stereo not shown) [LXIX]
- PWT, g Mean ± SEM ([3]; LXIX 5% topical both hind paws 3x/day, Day 14): Day 14 = 0.86 ± 0.10 g
- PWT, g Mean ± SEM ([3]; LXIX 5% topical both hind paws 3x/day, Day 21): Day 21 = 1.20 ± 0.14 g
- PWT, g Mean ± SEM ([5]; LXIX 100 mg/kg oral gavage once a day 14 days, day 14): 0.93 ± 0.14 g
- PWT, g mean ± SEM, Day 14 [7]: 1.35 ± 0.23 g
- PWT, g Mean ± SEM, Baseline [7]: 0.55 ± 0.09 g

Compound: CC(C)Cc1ccc(C(C)C(=O)O)cc1 (stereo not shown) [Ibuprofen, ibuprofen, reference compound]
- PWT [3]: 0.60 ± 0.08 g
- PWT [5]: 0.53 ± 0.05 g
- PWT, g Mean ± SEM [8]: 0.58 ± 0.02 g

Compound: CCOP(=O)(OCC)OCC(CNC(=O)C(C)c1ccc(CC(C)C)cc1)OP(=O)(OCC)OCC (stereo not shown) [PGIA, phospho-glycerol-ibuprofen-amide]
- PWT, g Mean ± SEM ([3]; mouse, in vivo): 1.70 ± 0.25 g

Compound: platinum-sulindac [Pt-sulindac]
- PWT, g ([5]; D 2): D 2 = 1.01 ± 0.17 g
- PWT, g ([5]; D 4): D 4 = 1.03 ± 0.19 g
- PWT, g ([5]; D 13): D 13 = 1.34 ± 0.07 g

Compound: CC(=O)Oc1ccccc1C(=O)O [Aspirin, aspirin, reference compound]
- PWT [3]: 0.69 ± 0.10 g

Compound: CC(C(=O)Oc1ccc(C(N)=S)cc1)c1cccc(C(=O)c2ccccc2)c1 (stereo not shown) [LXX]
- PWT, g mean ± SEM, Day 14 [7]: 1.28 ± 0.29 g
- PWT, g Mean ± SEM, Baseline [7]: 0.58 ± 0.07 g

Compound: NO-aspirin
- PWT, g Mean ± SEM ([3]; paclitaxel 8 mg/kg x4, 5% topical both hind paws 3x/day, Day 8): 1.47 ± 0.08 g

Compound: CCOP(=O)(OCC)OCCCCOC(=O)C(C)c1ccc(CC(C)C)cc1 (stereo not shown) [PI, phospho-ibuprofen]
- Paw-withdrawal threshold, g Mean ± SEM, Day 0 [3]: 0.64 ± 0.05 g
- Paw-withdrawal threshold, g Mean ± SEM, Day 14 ([3]; mouse, in vivo): 0.8 ± 0.07 g
- PWT [5]: 1.41 ± 0.23 g
- PWT, g Mean ± SEM ([7]; PI, PN 5% on left hind paw 3x/day 14 days, day 14): 1.54 ± 0.19 g
- PWT, g Mean ± SEM [8]: 0.82 ± 0.07 g

Compound: O=C(CCCO[N+](=O)[O-])Oc1ccccc1C(=O)Oc1ccc(-c2cc(=S)ss2)cc1 [NOSH1, NOSH-aspirin]
- PWT, g ([5]; D 2): D 2 = 0.93 ± 0.17 g
- PWT, g ([5]; D 4): D 4 = 1.39 ± 0.15 g
- PWT, g ([5]; D 13): D 13 = 1.33 ± 0.11 g
- PWT, g mean ± SEM, Day 14 [7]: 2.00 ± 0.00 g
- PWT, g Mean ± SEM, Baseline [7]: 0.60 ± 0.00 g

Compound: CCOP(=O)(OCC)OCC(COC(=O)C(C)c1ccc(CC(C)C)cc1)OP(=O)(OCC)OCC (stereo not shown) [PGI, phospho-glycerol-ibuprofen]
- PWT [5]: 1.60 ± 0.11 g

Compound: CCOP(=O)(OCC)OCCCCNC(=O)C(C)c1ccc(CC(C)C)cc1 (stereo not shown) [PIA, phosphoibuprofen-amide]
- PWT [5]: 1.79 ± 0.40 g
- PWT ([8]; PIA 80 mg/kg oral 3x/day, day 5): 1.43 ± 0.19 g
- PWT, g Mean ± SEM [8]: 1.74 ± 0.12 g
